Drawing on ChEMBL document CHEMBL1201862, “PubChem BioAssay data set” (2004), this text covers IC50, EC50 and AC50 for five compounds.

Assay [1] has as its target DNA dC->dU-editing enzyme APOBEC-3A (Homo sapiens, UniProt P31941). Briefly: A3A deaminase inhibition for selectivity – biochemical, dose response (AID 504722). The class given is functional.
Assay [2] concerns the target DNA dC->dU-editing enzyme APOBEC-3G (Homo sapiens, UniProt Q9HC16). The experiment in a line: Dose Response confirmation of small molecule APOBEC3G DNA Deaminase Inhibitors via a fluorescence-based single-stranded DNA deaminase assay. [Related pubchem assays (depositor defined):AID493012, AID493028]. The class given is functional.
Assay [3] concerns the target T1, Mannose-6-phosphate isomerase (Homo sapiens, UniProt P34949).
T1 sequence (P34949 whole entry): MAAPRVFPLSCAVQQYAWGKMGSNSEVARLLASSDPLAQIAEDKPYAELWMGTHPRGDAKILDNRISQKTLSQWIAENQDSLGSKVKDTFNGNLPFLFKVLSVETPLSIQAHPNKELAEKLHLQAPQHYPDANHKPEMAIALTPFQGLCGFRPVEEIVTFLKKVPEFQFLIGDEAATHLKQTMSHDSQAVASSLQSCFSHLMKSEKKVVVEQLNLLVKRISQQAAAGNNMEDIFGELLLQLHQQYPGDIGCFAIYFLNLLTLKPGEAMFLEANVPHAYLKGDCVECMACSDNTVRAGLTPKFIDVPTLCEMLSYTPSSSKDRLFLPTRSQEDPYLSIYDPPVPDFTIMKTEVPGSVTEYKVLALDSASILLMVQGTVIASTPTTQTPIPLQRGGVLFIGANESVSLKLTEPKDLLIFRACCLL
The experiment in a line: phosphomannose isomerase inhibition – biochemical, fluorescence intensity, confirmation (AID 1535).

The target in assay [4] is T1, Mannose-6-phosphate isomerase. Briefly: MPI enzyme activity inhibition – biochemical, fluorescence intensity, coupled assay, primary screen (AID 1209).
The next assay addresses Phosphomannomutase 2 (Homo sapiens, UniProt O15305). Briefly: Counter screen SAR assay for PMM2 inhibitors via a fluorescence intensity assay. [Related pubchem assays (depositor defined):AID1545, AID1574].
The target in assay [5] is Intestinal-type alkaline phosphatase (Homo sapiens, UniProt P09923). Briefly: activation of human intestinal alkaline phosphatase – biochemical, dose response (AID 488873). The class given is functional.
Intestinal-type alkaline phosphatase (Homo sapiens, UniProt P09923), sequence (P09923 whole entry): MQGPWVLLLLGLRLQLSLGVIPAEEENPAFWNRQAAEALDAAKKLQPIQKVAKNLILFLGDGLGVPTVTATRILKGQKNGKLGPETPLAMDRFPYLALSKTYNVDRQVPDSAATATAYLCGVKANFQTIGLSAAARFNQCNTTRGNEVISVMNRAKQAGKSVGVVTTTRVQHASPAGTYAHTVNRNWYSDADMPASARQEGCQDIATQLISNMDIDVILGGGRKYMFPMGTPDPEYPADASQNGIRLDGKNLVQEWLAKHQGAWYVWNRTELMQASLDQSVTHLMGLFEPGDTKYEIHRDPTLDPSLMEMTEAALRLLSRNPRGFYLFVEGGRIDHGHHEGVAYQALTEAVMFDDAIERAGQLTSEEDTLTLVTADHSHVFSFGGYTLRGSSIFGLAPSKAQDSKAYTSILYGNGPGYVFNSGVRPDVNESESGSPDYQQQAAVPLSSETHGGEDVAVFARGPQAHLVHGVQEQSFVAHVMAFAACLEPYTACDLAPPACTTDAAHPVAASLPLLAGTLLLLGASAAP
The target of assay [6] is T2, Alkaline phosphatase, tissue-nonspecific isozyme (Homo sapiens, UniProt P05186).
T2 sequence (P05186 whole entry): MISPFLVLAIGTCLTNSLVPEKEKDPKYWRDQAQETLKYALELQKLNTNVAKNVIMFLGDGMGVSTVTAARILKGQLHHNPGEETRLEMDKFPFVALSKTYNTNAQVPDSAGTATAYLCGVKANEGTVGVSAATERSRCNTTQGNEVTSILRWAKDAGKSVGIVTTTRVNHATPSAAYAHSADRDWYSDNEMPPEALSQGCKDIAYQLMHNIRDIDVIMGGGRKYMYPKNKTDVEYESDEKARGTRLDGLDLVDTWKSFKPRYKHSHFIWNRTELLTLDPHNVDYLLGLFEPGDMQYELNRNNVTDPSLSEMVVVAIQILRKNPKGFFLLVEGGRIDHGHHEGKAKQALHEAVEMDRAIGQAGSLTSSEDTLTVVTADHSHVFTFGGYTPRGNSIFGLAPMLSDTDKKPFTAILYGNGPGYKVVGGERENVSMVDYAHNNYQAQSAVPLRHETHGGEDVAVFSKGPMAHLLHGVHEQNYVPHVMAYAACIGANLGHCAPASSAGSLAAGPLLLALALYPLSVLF
The experiment in a line: activation of tissue-nonspecific alkaline phosphatase – biochemical, TNAP isozyme, mouse IAP uHTS hits, selectivity assay for mouse IAP activator project, dose response (AID 488880). The class given is functional.

The target of assay [7] is Intestinal-type alkaline phosphatase (Mus musculus, UniProt P24822). Briefly: mouse intestinal alkaline phosphatase activators, dose response, biochemical, luminescence, uHTS hits (AID 488783). The class given is functional.
Intestinal-type alkaline phosphatase (Mus musculus, UniProt P24822), sequence (P24822 whole entry): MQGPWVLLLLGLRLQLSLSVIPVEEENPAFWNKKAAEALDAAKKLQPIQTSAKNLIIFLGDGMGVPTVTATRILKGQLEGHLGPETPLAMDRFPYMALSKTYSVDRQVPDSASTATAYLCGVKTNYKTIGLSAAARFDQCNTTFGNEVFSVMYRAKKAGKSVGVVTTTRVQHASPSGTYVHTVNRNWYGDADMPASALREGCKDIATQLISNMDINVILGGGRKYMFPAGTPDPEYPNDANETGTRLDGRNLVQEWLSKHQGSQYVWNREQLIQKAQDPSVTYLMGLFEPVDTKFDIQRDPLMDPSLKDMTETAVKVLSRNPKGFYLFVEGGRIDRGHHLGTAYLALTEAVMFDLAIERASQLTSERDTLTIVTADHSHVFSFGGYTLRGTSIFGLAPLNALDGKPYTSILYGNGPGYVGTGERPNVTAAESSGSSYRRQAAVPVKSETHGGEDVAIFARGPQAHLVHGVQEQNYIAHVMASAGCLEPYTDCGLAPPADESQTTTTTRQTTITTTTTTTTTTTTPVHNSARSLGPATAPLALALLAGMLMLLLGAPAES
The target in assay [8] is Lysine-specific demethylase 4C (Homo sapiens, UniProt Q9H3R0). The experiment in a line: inhibition of JMJD2C H3K9me3 demethylation – biochemical, DELFIA europium, cherry-picked samples, dose response (AID 488835). The class given is functional.
Lysine-specific demethylase 4C, sequence (Q9H3R0 whole entry): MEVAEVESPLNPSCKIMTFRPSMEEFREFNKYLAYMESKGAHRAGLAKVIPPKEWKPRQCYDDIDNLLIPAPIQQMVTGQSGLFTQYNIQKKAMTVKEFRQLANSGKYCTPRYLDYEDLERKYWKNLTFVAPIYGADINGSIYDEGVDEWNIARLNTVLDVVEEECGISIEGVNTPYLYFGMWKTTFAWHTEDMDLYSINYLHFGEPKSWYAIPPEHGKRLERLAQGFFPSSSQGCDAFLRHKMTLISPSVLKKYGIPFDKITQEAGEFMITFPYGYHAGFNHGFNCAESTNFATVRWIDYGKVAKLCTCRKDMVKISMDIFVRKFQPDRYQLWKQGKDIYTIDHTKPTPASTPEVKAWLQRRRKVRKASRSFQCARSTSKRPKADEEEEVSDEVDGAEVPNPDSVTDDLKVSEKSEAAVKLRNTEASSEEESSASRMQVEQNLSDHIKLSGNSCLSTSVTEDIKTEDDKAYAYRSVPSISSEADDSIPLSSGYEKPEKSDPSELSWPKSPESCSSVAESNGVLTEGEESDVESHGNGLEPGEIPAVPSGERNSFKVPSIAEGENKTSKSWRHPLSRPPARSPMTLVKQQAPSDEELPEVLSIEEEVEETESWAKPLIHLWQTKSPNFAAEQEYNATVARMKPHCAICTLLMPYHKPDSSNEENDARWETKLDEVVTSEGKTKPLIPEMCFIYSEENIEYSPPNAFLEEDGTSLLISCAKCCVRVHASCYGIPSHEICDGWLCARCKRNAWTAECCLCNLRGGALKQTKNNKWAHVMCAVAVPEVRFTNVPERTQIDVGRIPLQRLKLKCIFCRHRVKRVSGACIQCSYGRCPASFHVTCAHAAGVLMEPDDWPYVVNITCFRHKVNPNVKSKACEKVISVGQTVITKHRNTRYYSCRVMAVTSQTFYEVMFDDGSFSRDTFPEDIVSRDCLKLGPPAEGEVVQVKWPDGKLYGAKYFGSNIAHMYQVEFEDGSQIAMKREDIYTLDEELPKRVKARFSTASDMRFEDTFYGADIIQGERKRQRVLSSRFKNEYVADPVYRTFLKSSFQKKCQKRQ
Assay [9] is described as follows: MIN6 cell viability loss – mouse insulinoma, cytotoxicity control, dose response (AID 2122).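 Note: confirmatory high-throughput counterscreen run to flag cytotoxic compounds.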 The class given is functional.
The nature of assay [10]: decrease of insulin promoter-GFP reporter – imaging, high-content screening, mouse beta cells (AID 1628). The class given is functional. The conditions noted are these: MIN6.
Assay [11] can be described thus: HEK-293T viability loss after treatment – luminescence, T-cell screen hits, cytotoxicity control for TCR NF-kB inhibitor project, dose response (AID 489026).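 Note: cells exposed to compound about 14 hours before the viability readout.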 The class given is functional, cell-based.

Structures are written as SMILES. Calls of active or inactive are those of the source.

Phosphomannomutase 2, sequence (O15305 whole entry): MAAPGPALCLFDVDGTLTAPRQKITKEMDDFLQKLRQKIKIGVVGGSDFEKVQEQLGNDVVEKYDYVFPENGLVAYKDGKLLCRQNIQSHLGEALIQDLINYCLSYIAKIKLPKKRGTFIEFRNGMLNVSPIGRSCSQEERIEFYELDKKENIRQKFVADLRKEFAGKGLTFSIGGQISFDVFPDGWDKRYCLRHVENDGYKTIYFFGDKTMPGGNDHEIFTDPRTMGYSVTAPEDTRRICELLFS
DNA dC->dU-editing enzyme APOBEC-3G, sequence (Q9HC16 whole entry): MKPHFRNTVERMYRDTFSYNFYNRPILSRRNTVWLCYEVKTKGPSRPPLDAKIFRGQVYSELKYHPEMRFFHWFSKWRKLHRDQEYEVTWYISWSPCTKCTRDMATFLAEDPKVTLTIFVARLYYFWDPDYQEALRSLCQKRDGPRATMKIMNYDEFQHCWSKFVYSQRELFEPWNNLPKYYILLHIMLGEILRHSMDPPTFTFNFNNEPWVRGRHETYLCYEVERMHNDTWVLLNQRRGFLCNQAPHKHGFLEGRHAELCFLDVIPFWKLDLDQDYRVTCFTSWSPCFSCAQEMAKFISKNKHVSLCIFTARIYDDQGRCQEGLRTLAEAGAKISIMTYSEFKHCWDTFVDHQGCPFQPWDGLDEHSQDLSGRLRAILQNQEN
DNA dC->dU-editing enzyme APOBEC-3A, sequence (P31941 whole entry): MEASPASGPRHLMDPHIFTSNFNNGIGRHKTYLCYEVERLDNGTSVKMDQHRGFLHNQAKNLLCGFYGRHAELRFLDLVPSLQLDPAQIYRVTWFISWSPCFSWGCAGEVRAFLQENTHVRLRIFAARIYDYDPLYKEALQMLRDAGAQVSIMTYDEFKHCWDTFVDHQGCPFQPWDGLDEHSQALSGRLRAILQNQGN

For `Cc1ccc(C)n1-c1n[nH]c(=S)[nH]1`, the IC50 was > 100 µM (inactive) in assay [1]; 6.12 µM (active) in assay [2]; 41.8 µM (active) in assay [3]; 13.7 µM (active) in [4]; > 100 µM (inactive) on Phosphomannomutase 2.
Consider `Cc1cc(C)c(S(=O)(=O)Nc2ccc(O)c(Sc3nnc[nH]3)c2)cc1C`, for which the values for the EC50 in assay [5], in assay [6] and in assay [7] were 22.5 µM (active), 42.4 µM (active) and 24.7 µM (active), respectively.
`FC(F)(F)c1nnc(/N=c2\ssnc2Cl)s1`: the IC50 in assay [3] was 20.8 µM (active); at Phosphomannomutase 2, > 100 µM (inactive).
In the case of `COc1ccc(/C=N/Nc2cc(=O)n(C)c(=O)n2C)cc1OC`, the AC50 in [8] is 7.21 µM (active).
For `COc1ccc(Br)cc1/C(C)=N/NC1=NCCN1`, the IC50 is 3.47 µM (active) in [9], 4.74 µM (active) in assay [10] and > 80 µM (inactive) in [11].
